Among the data in ChEMBL document CHEMBL3046421, “Transition metals in organic synthesis - Part 83#: Synthesis and pharmacological potential of carbazoles” (Med Chem Res, 2008) are IC50, selectivity ratio and MIC90 values, retold here.

One data set concerns Vero. As to the kind of experiment: Cytotoxicity against Chlorocebus aethiops (African green monkey) Vero cells. Type of data set: cell-based. The conditions noted are these: Chlorocebus sabaeus.
Data set [1] is described as follows: Selectivity index, ratio of IC50 for african green monkey Vero cells to MIC90 for Mycobacterium tuberculosis H37Rv. Type of data set: toxicity, cell-based. The settings on record: read-out: Selectivity Index.
Data set [2] relates to Mycobacterium tuberculosis. As to the kind of experiment: Antimycobacterial activity against Mycobacterium tuberculosis H37Rv by microplate alamar blue assay. Type of data set: functional.
For data set [3], the system named is Mycobacterium tuberculosis. As to the kind of experiment: Antimycobacterial activity against Mycobacterium tuberculosis H37Rv. Type of data set: functional.
The test system of the next data set is Brain. As to the kind of experiment: Inhibition of free-radical-induced lipid peroxidation in Rattus norvegicus (rat) brain homogenates. Type of data set: functional, tissue-based.
Data set [4] concerns the target T1, Polyunsaturated fatty acid 5-lipoxygenase (Rattus norvegicus, UniProt P12527).
T1 sequence (P12527 whole entry): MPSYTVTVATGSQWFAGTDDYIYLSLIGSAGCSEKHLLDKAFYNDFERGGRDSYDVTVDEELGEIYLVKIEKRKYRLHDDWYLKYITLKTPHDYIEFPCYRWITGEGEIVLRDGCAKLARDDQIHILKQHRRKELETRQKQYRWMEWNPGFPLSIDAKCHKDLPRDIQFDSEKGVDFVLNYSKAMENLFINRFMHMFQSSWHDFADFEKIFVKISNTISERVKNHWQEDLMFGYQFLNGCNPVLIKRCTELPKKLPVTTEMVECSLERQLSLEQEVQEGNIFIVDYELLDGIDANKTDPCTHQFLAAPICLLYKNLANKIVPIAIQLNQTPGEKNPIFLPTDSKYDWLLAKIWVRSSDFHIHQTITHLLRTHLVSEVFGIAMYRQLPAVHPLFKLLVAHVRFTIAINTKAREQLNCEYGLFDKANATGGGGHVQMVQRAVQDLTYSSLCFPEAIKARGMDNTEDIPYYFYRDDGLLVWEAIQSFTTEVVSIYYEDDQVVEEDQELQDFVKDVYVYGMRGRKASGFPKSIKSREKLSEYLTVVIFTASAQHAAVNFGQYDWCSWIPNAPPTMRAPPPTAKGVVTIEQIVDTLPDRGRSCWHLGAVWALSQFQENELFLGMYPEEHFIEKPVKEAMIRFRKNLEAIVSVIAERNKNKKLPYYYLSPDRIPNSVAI
Kind of data set: Inhibition of Rattus norvegicus (rat) 5-lipoxygenase.

Data set [5] concerns Mycobacterium tuberculosis. Kind of data set: Antimycobacterial activity against Mycobacterium tuberculosis H37Ra. Type of data set: functional.
For another data set, the system named is Plasmodium falciparum. As to the kind of experiment: Antiplasmodial activity against Plasmodium falciparum. Type of data set: functional, organism-based.

The structures appear in SMILES notation. Converted amounts (≈) assume the structure as drawn.

For `COC1=C(C)C(=O)c2[nH]c3ccccc3c2C1=O` [3-METHOXY-2-METHYLCARBAZOLE-1,4-QUINONE], the IC50 in the data set on Vero is above 128 µM. Besides, the selectivity ratio in data set [1] is above 16. This molecule also gave an MIC90 in data set [2] of 8 µM (≈ 1.93 µg/mL).

Take `COc1ccc2[nH]c3ccc(C=O)cc3c2c1`: the IC50 in the data set with Vero is above 128 µM. The selectivity ratio in data set [1] was above 1.3. Moreover, the MIC90 in data set [3] is 15.6 µg/mL (≈ 69.3 µM); in data set [2] it was 99 µM (≈ 22.3 µg/mL).

Take `O=Cc1cc2c(cc1O)[nH]c1cc(O)ccc12` [CLAUSINE O]: 114 µM corresponded to half-maximal inhibition in the data set on Vero (IC50). Moreover, in data set [1], the selectivity ratio was determined as 1.3. The MIC90 in data set [2] came out at 89 µM (≈ 20.2 µg/mL).

The molecule `COC(=O)c1ccc2[nH]c3cc(OC)ccc3c2c1` [CLAUSINE C] displayed an MIC90 in data set [2] above 128 µM.

The molecule `COC(=O)c1ccc2[nH]c3ccc(OC)cc3c2c1` returned an IC50 in the data set on Vero above 128 µM. The selectivity ratio in data set [1] is above 4. For the same molecule, in data set [2], the MIC90 amounted to 32 µM (≈ 8.17 µg/mL).

Turning to `CC(C)=CCc1cc2c(cc1O)[nH]c1ccc(C)cc12` [SIAMENOL], in the data set on Vero, the IC50 amounted to 15 µM. Further, the selectivity ratio in data set [1] is 0.7. In data set [2], this molecule registered an MIC90 of 22 µM (≈ 5.84 µg/mL).

Consider `CC(C)=CCc1c(O)ccc2[nH]c3ccc(C=O)cc3c12` [MICROMELINE], for which the MIC90 in data set [3] was 31.5 µg/mL (≈ 113 µM); in data set [2], above 128 µM.

Turning to `COc1c(C)c(C[C@@H](C)O)c2[nH]c3ccc(CC=C(C)C)cc3c2c1O` [(R)-(-)-NEOCARAZOSTATIN B], in the data set with Brain, half-maximal inhibition (IC50) was put at 0.39 µM.

In the data set on Vero, `COc1ccc2c(c1)[nH]c1cc(OC)c(C)cc12` gave an IC50 above 128 µM. This molecule also came in with an MIC90 in data set [2] above 128 µM.

`COc1ccc2[nH]c3ccc(C=O)cc3c2c1Br` [5-BROMO-3-FORMYL-6-METHOXYCARBAZOLE] registered an IC50 in the data set on Vero of 78 µM. Also, the selectivity ratio in data set [1] was below 0.6. For the same molecule, in data set [2], the MIC90 was above 128 µM.

For the molecule `CO[C@H]1/C=C/O[C@@]2(C)Oc3c(C)c(O)c4c(O)c(c(/C=N/N5CCN(C)CC5)c(O)c4c3C2=O)NC(=O)/C(C)=C\C=C\[C@H](C)[C@H](O)[C@@H](C)[C@@H](O)[C@@H](C)[C@H](OC(C)=O)[C@@H]1C` [RIFAMPIN], the midpoint of inhibition in the data set on Vero, the IC50, lay at 105 µM. Besides, in data set [1], the selectivity ratio was found to be 1170. For the same molecule, the MIC90 in data set [2] is 0.09 µM (≈ 0.0741 µg/mL).

On to `COc1ccc2c(c1)[nH]c1ccc(C=O)cc12` [CLAUSZOLINE K], for which the MIC90 in data set [2] was above 128 µM.

`Cc1c(O)cc2c([nH]c3c(O)ccc(CO)c32)c1C1OC1(C)CCC(C)C` (racemic) [RAC-EPOCARBAZOLIN A]: the IC50 in data set [4] was 2.4 µM.

The molecule `CC[C@H](C)CCC1(C)OC1c1c(C)c(O)cc2c1[nH]c1c(O)ccc(CO)c12` (stereo partly specified) [EPOCARBAZOLIN B] showed an IC50 in data set [4] of 2.6 µM.

In the case of `COc1ccc2c(c1)[nH]c1ccc(C(=O)O)cc12` [CLAUSINE N], the MIC90 in data set [2] is above 128 µM.

For the molecule `NNC(=O)c1ccncc1` [ISONIAZID], the IC50 in the data set on Vero is above 128 µM. In addition, the selectivity ratio in data set [1] is above 320. In data set [2], this molecule gave an MIC90 of 0.4 µM (≈ 0.0549 µg/mL).

With `COC(=O)c1ccc2[nH]c3cc(O)ccc3c2c1` [CLAUSINE M], in the data set with Vero, the IC50 came out at 35 µM. Further, in data set [1], the selectivity ratio was found to be 1.8. In data set [2], the MIC90 was determined as 19 µM (≈ 4.58 µg/mL).

In turn, `COc1c(C)c(C[C@@H](C)OC(C)=O)c2[nH]c3ccc(Br)cc3c2c1OC(C)=O` showed an IC50 in the data set with Vero of 25 µM. Further, the selectivity ratio in data set [1] was 0.5. Moreover, the MIC90 in data set [2] was found to be 55 µM (≈ 24.7 µg/mL).

In the data set with Vero, `Cc1ccc2[nH]c3ccc(O)cc3c2c1` [GLYCOZOLININE] came in with an IC50 of 57 µM. Besides, in data set [1], the selectivity ratio came to 0.5. In addition, the MIC90 in data set [2] stood at 123 µM (≈ 24.3 µg/mL).

`COc1ccc2c(c1)[nH]c1cc(OC)c(C=O)cc12` [LANSINE] returned an IC50 in the data set on Vero of 96 µM. Further, the selectivity ratio in data set [1] is below 0.8. Moreover, in data set [2], the MIC90 was above 128 µM.

For the molecule `COc1ccc2c(c1)[nH]c1cc(OC)c(C(=O)O)cc12` [CLAUSINE K], the results for the MIC90 in data set [5] and in data set [2] were 100 µg/mL (≈ 369 µM) and above 128 µM, respectively. The molecule also had an IC50 with Vero of 25 µM. The selectivity ratio in data set [1] is below 0.2.

As for `COC(=O)c1cc2c(cc1OC)[nH]c1cc(OC)ccc12` [CLAUSZOLINE C], the IC50 in the data set with Plasmodium falciparum is 5.5 µg/mL (≈ 19.3 µM).

For `COc1ccc2c(c1)[nH]c1ccc(C)cc12` [7-METHOXY-3-METHYLCARBAZOLE], in data set [2], the MIC90 is above 128 µM.

`COc1ccc2[nH]c3ccc(C)cc3c2c1` [GLYCOZOLINE] returned an MIC90 in data set [2] above 128 µM.

In the data set on Vero, `Cc1ccc2[nH]c3ccc4occc4c3c2c1` [EUSTIFOLINE-D] had an IC50 above 128 µM. For the same molecule, the MIC90 in data set [2] was above 128 µM.

In general, IC50 refers to the concentration that gives 50% inhibition. The term MIC90 denotes the lowest concentration that inhibits either 90% of growth or 90% of the strains tested, depending on the study.
